Among the data in PMC2213567 (The Journal of General Physiology, 2008) are Kd values, retold here.

The target in the assay is α4β2δ GABAAR (Mus musculus (alpha4); Rattus norvegicus (beta2); Homo sapiens (delta), UniProt P63138+Q9D6F4). Kind of assay: ultrafast agonist application, outside-out macropatch. Format: cell-based.

The structures appear in SMILES notation.

Chain of α4β2δ GABAAR (Q9D6F4 36-552): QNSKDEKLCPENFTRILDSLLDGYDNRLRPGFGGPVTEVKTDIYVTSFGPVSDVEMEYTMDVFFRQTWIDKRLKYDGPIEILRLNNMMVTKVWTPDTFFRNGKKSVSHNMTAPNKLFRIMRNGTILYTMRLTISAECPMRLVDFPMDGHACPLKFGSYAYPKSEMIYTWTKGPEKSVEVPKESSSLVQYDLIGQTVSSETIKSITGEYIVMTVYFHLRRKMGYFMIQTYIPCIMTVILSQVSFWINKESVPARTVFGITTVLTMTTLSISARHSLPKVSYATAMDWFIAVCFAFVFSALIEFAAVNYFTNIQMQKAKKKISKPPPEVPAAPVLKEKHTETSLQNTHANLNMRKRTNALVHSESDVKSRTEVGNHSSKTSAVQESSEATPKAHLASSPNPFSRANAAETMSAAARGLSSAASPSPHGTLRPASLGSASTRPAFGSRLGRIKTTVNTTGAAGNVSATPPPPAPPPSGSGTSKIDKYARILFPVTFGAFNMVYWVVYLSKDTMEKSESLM
Chain of α4β2δ GABAAR (P63138 26-474): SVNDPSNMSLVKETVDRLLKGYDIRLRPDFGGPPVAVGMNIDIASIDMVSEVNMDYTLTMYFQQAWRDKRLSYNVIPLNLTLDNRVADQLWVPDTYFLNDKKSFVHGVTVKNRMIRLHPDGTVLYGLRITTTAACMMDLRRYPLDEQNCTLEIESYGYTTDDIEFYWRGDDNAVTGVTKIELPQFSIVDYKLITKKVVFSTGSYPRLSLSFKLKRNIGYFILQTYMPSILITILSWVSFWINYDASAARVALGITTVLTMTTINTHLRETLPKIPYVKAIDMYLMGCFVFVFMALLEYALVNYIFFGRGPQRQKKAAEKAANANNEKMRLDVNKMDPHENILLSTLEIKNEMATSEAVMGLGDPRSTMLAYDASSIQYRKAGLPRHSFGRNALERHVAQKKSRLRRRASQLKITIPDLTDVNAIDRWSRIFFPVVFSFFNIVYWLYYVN
Chain of α4β2δ GABAAR (O14764 25-452 partner): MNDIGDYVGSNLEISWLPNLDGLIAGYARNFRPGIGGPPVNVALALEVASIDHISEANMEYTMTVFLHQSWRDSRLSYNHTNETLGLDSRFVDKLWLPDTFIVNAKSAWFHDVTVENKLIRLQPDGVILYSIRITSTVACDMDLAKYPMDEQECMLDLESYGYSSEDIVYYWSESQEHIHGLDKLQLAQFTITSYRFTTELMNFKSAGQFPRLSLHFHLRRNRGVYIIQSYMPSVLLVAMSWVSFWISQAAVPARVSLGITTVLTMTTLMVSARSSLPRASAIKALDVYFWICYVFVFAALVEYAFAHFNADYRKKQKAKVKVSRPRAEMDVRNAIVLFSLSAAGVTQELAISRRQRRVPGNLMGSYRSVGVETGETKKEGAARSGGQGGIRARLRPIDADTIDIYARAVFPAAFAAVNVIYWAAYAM

As usually defined, the Kd is the constant that tells how readily two partners part at equilibrium. `Oc1noc2c1CCNC2` [THIP, 4,5,6,7-tetrahydroisoxazolo[5,4-c]pyridin-3(2H)-one] returned a Kd of 683 µM.
